Reference: ChEMBL document CHEMBL5137049, “Discovery of a Novel Small-Molecule Inhibitor Disrupting TRBP-Dicer Interaction against Hepatocellular Carcinoma via the Modulation of microRNA Biogenesis” (J Med Chem, 2022)
Calls of active or inactive are those of the source. No cut-off for these calls is given here.

Columns and labels:
SK-HEP1 [1] = assay: Upregulation of PTEN protein expression in human SK-HEP1 cells incubated for 24 hrs by Western blotting analysis; type: functional, cell-based; details: dose 1-50 µM, DDE = dose-dependent effect
HeLa [2] = assay: Downregulation of miR-30A expression in human HeLa cells at 10 uM incubated for 6 hrs by qRT-PCR analysis; type: functional
HeLa [3] = assay: Downregulation of miR-155 expression in human HeLa cells at 10 uM incubated for 6 hrs by qRT-PCR analysis; type: functional
HepG2 [4] = assay: Downregulation of miR-21 expression in human HepG2 cells at 10 uM incubated for 6 hrs by qRT-PCR analysis; type: functional
HepG2 [5] = assay: Downregulation of miR-122 expression in human HepG2 cells at 10 uM incubated for 6 hrs by qRT-PCR analysis; type: functional
HCCLM3 [6] = assay: Inhibition of cell migration in human HCCLM3 cells assessed as reduction of cell mobility at 1 to 25 uM measured at 24 hrs by well scratch method; type: functional, cell-based; details: dose 1-25 µM
MHCC97-L [7] = assay: Inhibition of cell migration in human MHCC97-L cells assessed as reduction of cell mobility at 1 to 25 uM measured at 24 hrs by well scratch method; type: functional, cell-based; details: dose 1-25 µM
MHCC97-L [8] = assay: Inhibition of cell migration in human MHCC97-L cells at 1 to 25 uM measured after 24 hrs by crystal violet staining based transwell assay; type: functional; details: dose 1-25 µM
SK-HEP1 [9] = assay: Downregulation of fibronectin expression in human SK-HEP1 cells at 1 to 25 uM by Western blot analysis; type: functional, cell-based; details: dose 1-25 µM
SK-HEP1 [10] = assay: Downregulation of N-cadherin expression in human SK-HEP1 cells at 1 to 25 uM by Western blot analysis; type: functional, cell-based; details: dose 1-25 µM
[11] = Acute toxicity in KM mouse assessed as effect on heart at 100 mg/kg, ip administered for 7 consecutive days by hematoxyin-eosin staining based analysis; type: organism-based; details: in vivo, 168 h, time 7 day
[12] = Acute toxicity in KM mouse assessed as effect on liver at 100 mg/kg, ip administered for 7 consecutive days by hematoxyin-eosin staining based analysis; type: organism-based; details: in vivo, 168 h, time 7 day
MHCC97-L [13] = assay: Antitumor activity against human MHCC97-L cells xenografted in SCID mouse assessed as reduction in tumor proliferation at 10 to 50 mg/kg, ip administered every 2 days for 4 weeks; type: functional, organism-based; details: dose 10-50 mg/kg
[14] = Toxicity in SCID mouse xenografted with human MHCC97-L cells assessed as change in body weight at 10 to 50 mg/kg, ip administered every 2 days for 4 weeks and measured on alternate days; type: organism-based; details: in vivo, 672 h, dose 10-50 mg/kg
[15] = Toxicity in SCID mouse xenografted with human MHCC97-L cells assessed as effect on lung at 10 to 50 mg/kg, ip administered every 2 days for 4 weeks by hematoxyin-eosin staining based analysis; type: organism-based; details: in vivo, 672 h, dose 10-50 mg/kg
SK-HEP1 [16] = assay: Antitumor activity against human SK-HEP1 cells xenografted in SCID mouse assessed as reduction in number of intrahepatic migration lesions at 10 to 25 mg/kg, ip administered every 2 days for 4 weeks by hematoxyin-eosin staining based analysis; type: functional, organism-based; details: dose 10-25 mg/kg
Mus musculus [17] = assay: Upregulation of E-cadherin expression in liver of SCID mouse xenografted with human SK-HEP1 cells at 10 to 50 mg/kg, ip administered every 2 days for 4 weeks by immunohistochemical staining analysis; type: functional, organism-based; details: dose 10-50 mg/kg
Mus musculus [18] = assay: Downregulation of beta-catenin expression in liver of SCID mouse xenografted with human SK-HEP1 cells at 10 to 50 mg/kg, ip administered every 2 days for 4 weeks by immunohistochemical staining analysis; type: functional, organism-based; details: dose 10-50 mg/kg
Mus musculus [19] = assay: Downregulation of vimentin expression in liver of SCID mouse xenografted with human SK-HEP1 cells at 10 to 50 mg/kg, ip administered every 2 days for 4 weeks by immunohistochemical staining analysis; type: functional, organism-based; details: dose 10-50 mg/kg
SK-HEP1 [20] = assay: Downregulation of miR-135 expression in human SK-HEP1 cells at 10 uM by qRT-PCR analysis; type: functional, cell-based
MHCC97-L [21] = assay: Upregulation of miR-125 expression in human MHCC97-L cells at 10 uM by qRT-PCR analysis; type: functional, cell-based
HCCLM3 [22] = assay: Upregulation of let-7 expression in human HCCLM3 cells at 10 uM by qRT-PCR analysis; type: functional, cell-based
SK-HEP1 [23] = assay: Downregulation of PTEN protein expression in pCMV3-TRBP transfected human SK-HEP1 cells at 10 uM incubated for 24 hrs by Western blotting analysis; type: functional, cell-based
SK-HEP1 [24] = assay: Upregulation of E-cadherin expression level in TRBP siRNA transfected human SK-HEP1 cells incubated for 48 hrs by Western blotting analysis; type: functional, cell-based
SK-HEP1 [25] = assay: Downregulation of vimentin expression level in TRBP siRNA transfected human SK-HEP1 cells incubated for 48 hrs by Western blotting analysis; type: functional, cell-based
HeLa [26] = assay: Upregulation of pri-miR-214 in human HeLa cells at 10 uM incubated for 6 hrs by qRT-PCR analysis; type: functional, cell-based
HeLa [27] = assay: Upregulation of pri-miR-30a in human HeLa cells at 10 uM incubated for 6 hrs by qRT-PCR analysis; type: functional, cell-based
HepG2 [28] = assay: Upregulation of pri-miR-221 in human HepG2 cells at 10 uM incubated for 6 hrs by qRT-PCR analysis; type: functional, cell-based
HeLa [29] = assay: Upregulation of pre-miR-214 in human HeLa cells at 10 uM incubated for 6 hrs by qRT-PCR analysis; type: functional, cell-based
HeLa [30] = assay: Upregulation of pre-miR-155 in human HeLa cells at 10 uM incubated for 6 hrs by qRT-PCR analysis; type: functional, cell-based
SK-HEP1 [31] = assay: Downregulation of SUV39H1 expression in human SK-HEP1 cells at 1 to 25 uM by Western blotting analysis; type: functional, cell-based; details: dose 1-25 µM
SK-HEP1 [32] = assay: Downregulation of ZEB2 expression in human SK-HEP1 cells at 1 to 25 uM by Western blotting analysis; type: functional, cell-based; details: dose 1-25 µM
[33] = target: T1, Programmed cell death protein 4 (Homo sapiens) (UniProt Q53EL6); assay: Inhibition of PDCD4 in human HeLa cells tranfected with pCI-neo-luciferase-PDCD4 3'-UTR plasmid assessed as fold change in luciferase signal by measuring relative luciferase unit by luciferase reporter assay; type: cell-based
T1 sequence (whole entry): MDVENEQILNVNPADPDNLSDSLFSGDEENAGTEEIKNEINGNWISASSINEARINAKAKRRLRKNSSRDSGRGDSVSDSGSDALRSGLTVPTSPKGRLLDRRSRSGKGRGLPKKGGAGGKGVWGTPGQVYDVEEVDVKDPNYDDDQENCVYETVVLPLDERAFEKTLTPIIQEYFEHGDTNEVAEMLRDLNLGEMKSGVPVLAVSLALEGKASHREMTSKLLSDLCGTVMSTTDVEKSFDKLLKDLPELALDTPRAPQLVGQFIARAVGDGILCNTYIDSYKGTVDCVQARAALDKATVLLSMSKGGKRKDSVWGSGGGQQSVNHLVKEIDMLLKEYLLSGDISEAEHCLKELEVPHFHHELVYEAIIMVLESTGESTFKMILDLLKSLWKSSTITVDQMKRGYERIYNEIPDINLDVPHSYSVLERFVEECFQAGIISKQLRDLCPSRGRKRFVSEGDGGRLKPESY

CCOC(=O)c1nc(-c2ccc(OC)cc2)oc1C
Activity (SK-HEP1 [1]): Dde | Activity (HeLa [2]): 60% | Activity (HeLa [3]): 60% | Activity (HepG2 [4]): 60% | Activity (HepG2 [5]): 60% | inhibition (HCCLM3 [6]): Active | inhibition (MHCC97-L [7]): Active | inhibition (MHCC97-L [8]): Active | Activity (SK-HEP1 [9]): Active | Activity (SK-HEP1 [10]): Active | Activity [11]: Non-Toxic | Activity [12]: Non-Toxic | Activity (MHCC97-L [13]): Active | Activity [14]: Non-Toxic | Activity [15]: Non-Toxic | Activity (SK-HEP1 [16]): Active | Activity (Mus musculus [17]): Active | Activity (Mus musculus [18]): Active | Activity (Mus musculus [19]): Active | Activity (SK-HEP1 [20]): Active | Activity (MHCC97-L [21]): Active | Activity (HCCLM3 [22]): Active | Activity (SK-HEP1 [23]): Active | Activity (SK-HEP1 [24]): Active | Activity (SK-HEP1 [25]): Active | Activity (HeLa [26]): Active | Activity (HeLa [27]): Active | Activity (HepG2 [28]): Active | Activity (HeLa [29]): Active | Activity (HeLa [30]): Active | Activity (SK-HEP1 [31]): Active | Activity (SK-HEP1 [32]): Active | RLU [33]: 2.13
